Source: patent US20220354818A1, “METHODS FOR TREATING BRAIN INJURY OR COGNITIVE DYSFUNCTION BY PHARMACOLOGICAL ENHANCMENT OF M-TYPE POTASSIUM ION CURRENTS IN NEURONS” (Advanced Neuroresearch Therapeutics LLC, priority 2019, published 2022)

Key:
sympathetic neuron = assay: Action potential firing in a sympathetic neuron, current-clamp
Text: Various currents are applied in “current-clamp” mode 44 ranging from 50 pA to −100 pA, and the resulting AP firing recorded.

[1] = tested on: C57BL/6J mice subjected to three blast TBIs; assay: Repetitive blast TBI (rbTBI): post-traumatic seizures and post-traumatic epilepsy, video/EEG
Method: Adult 12-week-old male C57BL/6J mice (Jackson Labs, Bar Harbor, Me.) were group-housed with food and water ad libitum in 12:12 hour light: dark cycle. […] Experimenters were blinded to group allocation during data collection and analysis.
The shock tube (Applied Research Associates) had and inner diameter of 17 inches and a about 36-inch end opening. […] Before reaching the mice, the air blast wave passed through a 0.016-inch-thick aluminum membrane of alloy AL-2200. Pencil probe gauges (PCB Piezotronics) were placed beside the mice to monitor the pressure of the air-driven blast wave. […] During the procedure, mice were anesthetized using ketamine (25-75 mg/kg) and dexmedetomidine (0.25 mg/kg). The animals were subjected to three directed head-on blast TBI with 24 hours intervals between each injury. On the first day of blast exposure, animals were given a subcutaneous injection of buprenorphine SR (1.2 mg/kg) in the interscapular region.
Sham animals were anesthetized and placed in the shock tube but were not subjected to the rbTBI. After each blast exposure, mice were given one subcutaneous injection of atipamezole (1 mg/kg) to reverse the anesthesia and placed into a recovery chamber with controlled temperature. On the following days, mice were monitored for signs of pain and distress.
Mice from the “TBI” group were injected with the same volume of vehicle solution only.
Seizures were identified visually by the investigator's analysis of the video/EEG records. The number of seizures, latency to the first seizure, seizure duration, and percentage of mice from each group that had seizures were quantified.

[2] = tested on: mice subjected to one blunt TBI (CCCI); assay: Dosage optimization: spontaneous myoclonic seizures after one blunt TBI (CCCI); format: in vivo, mouse; details: RTG 0.3, 1 and 3 mg/kg i.p. once 30 minutes post-TBI; second to fourth day
Method: An additional KCNQ2/3-specific compound, RL648_81 was also administered in the same manner (0.03 mg/kg, 0.1 mg/kg, and 0.3 mg/kg). […] To monitor the occurrence of spontaneous myoclonic seizures after, the mice were video/EEG monitored from the second to the fourth day after the TBI (72 hours total).

c-Fos = c-Fos expression (FosTRAP mice) in hippocampal CA1 after blunt TBI; format: in vivo, mouse; details: tamoxifen 30 days after single blunt TBI; acute RTG treatment
Text: Transgenic “FosTRAP” mice were used to study neuronal activity in sub-cortical regions following blunt TBI (the CCCI model as described above). These mice express the fluorescent protein, tdTomato, under the control of the neuronal promoter c-Fos, an “early intermediate gene” transcriptional factor that correlates well with heavy neuronal activity. Accordingly, whenever neurons express c-Fos, tdTomato is also expressed, allowing for an optical reporter of prior neuronal activity.
Because these transgenic mice express tdTopmato via the tamoxifen-inducible Cre/IoxP system, mice were injected (i.p.) with tamoxifen (75 mg/kg) 30 days after a single blunt TBI (i.e., CCCI), and samples were collected 5 days after injection.
Slices (200 μm) of each collected sample were infused with 4% (w/v) PFA for 10 minutes at RT, washed 5× in PBS and blocked with 8% (v/v) donkey serum (Sigma-Aldrich) diluted in PBS, 0.1% (v/v) Triton X-100 (Sigma-Aldrich), and 0.1% (v/v) Tween 20 (Thermo Fisher Scientific). […] A Nikon Eclipse FN1 microscope with 10× and 40× Plan Fluor objectives was used for detection of fluorescence. […] Cell count was obtained by non-biased automatic quantification with ImageJ. […] ROIs were determined automatically using the “analyze particles” function of ImageJ, with size set to 200-8000 and circularity set to 0.00-1.00.

M-channels = assay: Voltage dependence of M-channels
[3] = tested on: C57BL/6J mice subjected to controlled closed cortical impact (CCCI); assay: Post-traumatic seizures after CCCI blunt TBI, video/EEG monitoring; format: in vivo, mouse; details: RTG 1.2 mg/kg i.p. 30 minutes post-TBI, video/EEG three days starting 24 hours after injury
Text: Male and female mice were used for all experiments performed, except for GFAP, Iba1 and Fluro-Jade B histology experiments and for PSVue794 and Evans Blues imaging.
Animals were divided randomly among cohorts so that each cage included animals from all treatments.
The CCCI model was used to generate reproducible moderate blunt brain injury. This model has the advantages of producing focal contusion in which the skull remains intact. CCCI can most closely simulate blunt-head traumas resulting from falls, physical violence, or motor vehicle accidents and particularly in rodent models often produces spontaneous seizures within 24 hours.
A single trauma per mouse was employed. CCCI was delivered by a pneumatic impact device (Leica Biosystems) following a protocol previously published. A cylindrical probe of 5 mm diameter was used to deliver a calibrated impact to the skull, 1 mm depth over the right parietal cortex and a small portion of the caudal end of the right frontal cortex, at a velocity of 4.5 m/s to produce a moderate TBI. […]
To quantify seizure frequency and determine seizure susceptibility, mice of each cohort were implanted with electroencephalogram (EEG) electrodes 24 hours after CCCI or Sham. […]
Computer-assisted cortical EEGs was recorded and reviewed for the presence of seizures and epileptiform spikes. […] Detected events were visually confirmed by blinded experimenters.

mice subjected to rbTBI = assay: Sleep-wake cycle analysis of EEG after rbTBI; format: in vivo, mouse; details: first week post-rbTBI
Method: To study the sleep-wake cycle, video/EEG records from the first 72 hour long record session (starting 2 days after the last injury) and the last 48 hour long record session (9 months after the last injury) were analyzed. To select one EEG channel from each animal/session for further analysis, we performed visual inspections of the raw local field potentials and their time-frequency decompositions (spectrograms) recorded from the three electrodes. EEG channels with signal saturation and background noise or artifacts were discarded. Then, the EEG channel with the highest percentage power at the 5-12 Hz frequency band was used to classify the sleep-wake cycle. Awake state (WK), slow wave sleep (SWS), rapid eye movement sleep REM), and transition/undetermined states (US) were classified based on two power spectral ratios, as described by Gervasoni et al., Global Forebrain Dynamics Predict Rat Behavioral States and Their Transitions, J Neurosci 24(49): 11137-11147 (2004). In brief, it first measures the relative power within fast (0.5-20/0.5-50 Hz) and slow (0.5-4.5/0.5-9 Hz) frequency bands and then generates a 2 dimensional (2D) state-space on which clusters are manually selected and associated with each state of the sleep-wake cycle.

CCOC(=O)Nc1ccc(NCc2ccc(F)cc2)cc1N [RTG, 2-amino-4-(4-fluorobenzylamino)-1-ethoxycarbonylaminobenzene]
action potential firing in response to stimuli (sympathetic neuron): Complete silencing of the neuron occurs
duration of post-traumatic seizures (PTS) ([1]; rbTBI, RTG 1.2 mg/kg i.p. 30 minutes after each blast, second to fourth day after TBIs): significantly reduced duration of the PTS
mice experiencing seizures (PTE) ([1]; rbTBI, RTG 30 minutes after each TBI, first to ninth month after final rbTBI): about 20%
severity of post-traumatic seizures (EEG amplitude) ([1]; rbTBI, RTG 30 minutes after each blast): less severe
mice that developed post-traumatic epilepsy (PTE) ([1]; three blast TBIs one day apart, RTG 30 min after each, 1 month to 12 months after injury): 25%
occurrence of myoclonic seizures post-TBI [2]: significantly reduced the occurrence of myoclonic seizures
c-Fos expression, hippocampal CA1 (c-Fos): significantly less c-Fos than the TBI cohort
voltage dependence of M-channels (M-channels): shifting the voltage dependence of M-channels towards more negative potentials
mice displaying post-traumatic seizures [3]: no animal treated with RTG post-TBI displayed seizures and zero
percentage of time in awake state (mice subjected to rbTBI): roughly equivalent to that experienced by the Sham group
